The values below come from article PMC9489722, “Identification and development of a subtype-selective allosteric AKT inhibitor suitable for clinical development” (Scientific Reports, 2022).

In one data set the test system is A549 cells. Put plainly: In vitro proliferation assay (CellTiter-Glo), A549. In kind it is cell-based. Particulars: Homo sapiens; A549 cell line. The method, then: MCF-7, T47D, NCI-H460, HCT116, LNCaP, A431, PC3, PANC-1, A549, HT29M, SKOV-3, Du145, HMEC-1, Hs888Lu, Hela, MDA-MB-231 and SW480 cells were obtained from American Type Culture Collection (ATCC). A2780, PNT2, U251MG, HFFF2 and Fr2 cells were obtained from Public Health England European Collection of Authenticated Cell Cultures (Phe ECACC). InMyoFib and NHLF cells were acquired from Lonza. Cells were then incubated with increasing concentration of inhibitor (1 nM to 100 µM) for 72 h at 37 °C. Cell viability was determined using the CellTiter-Glo Luminescent Cell Viability Assay (Promega). IC50 values were derived as previously stated.
On the technique in general: In ATP-based viability assays light output follows the ATP content of the culture.

In the next data set the test system is MCF-7 cells. The experiment in a line: Clonogenic cell survival assay. Type of data set: cell-based. Particulars: Homo sapiens, MCF7; MCF-7, concentration range 0.001–10 µM.
A further data set relates to A549 xenografts. Put plainly: Anti-tumour efficacy study in A549 lung cancer xenograft model. In kind it is in vivo, mouse. How it is done:
For efficacy in A549 xenografts, 90 male BALB/c nude mice aged 6–8 weeks and weighing approximately 20–26 g were inoculated subcutaneously in the right flank with 1 × 10^7 A549 tumour cells (ATCC) in 0.1 mL of PBS with Matrigel (1:1) to aid tumour development. When the mean tumour size reached approximately 150 mm^3, 10 mice were randomised to each experimental group, using a randomised block approach. Groups sizes were devised based on past experience of the provider. Treatment started on Day 11 after tumour inoculation with mice receiving ALM301 (either 10, 30 or 100 mg/kg) or vehicle control. Tumour size was measured twice weekly in two dimensions using a caliper, and the volume expressed in mm^3 using the formula: V = 0.5 (a × b^2), where a and b are the long and short diameters of the tumour, respectively.

A short description of data set [1]: In vitro microsomal stability, human. Type of data set: in vitro ADME. Particulars: pH 7.4; human liver microsomes; read-out: human LM CLint. How it is done:
Compounds (final concentration = 1 µM; final DMSO concentration = 0.1%) were incubated in 0.1 M phosphate buffer at pH 7.4 with liver microsomes (human, mouse, rat or dog; 0.5 mg of protein/mL) at 37 °C. Reactions were started by addition of NADPH in 0.1 M phosphate buffer pH 7.4 (final concentration 1 mM). Reactions were quenched by addition of ice-cold methanol and frozen. The supernatants were analysed by LC/MS/MS on a Waters Acquity I-Class coupled to a Waters Xevo TQD mass spectrometer. A Waters BEH C18 2.1 × 50 mm 1.7 µm column was used and mobile phases consisted of water and methanol containing 0.1% formic acid as modifier. Analysis was by multiple reaction monitoring and conditions were optimised for each test compound.

For another data set, the target named is p38α (Homo sapiens, UniProt Q16539). The experiment in a line: SelectScreen kinase selectivity profiling, p38α. Type of data set: biochemical. How it is done:
(§1) Off-target kinase activity was performed using the SelectScreen kinase profiling service against either mini 50 kinase or full 450 kinase panels using the Z’lyte and Adapta kinase activity platforms (performed by Thermofisher).

For data set [2], the system named is pGSK3β in PC3 prostate cancer cells. Put plainly: pGSK3β ELISA in PC3 cells. Type of data set: cell-based. Particulars: Homo sapiens, PC-3; PC3 cells, 24 h. The method, then:
Cells were then washed with PBS and lysed. The subsequent supernatant was assayed using a GSK3β (pS9) (Invitrogen, Life Technologies) ELISA. Phospho-AKT levels were detected using the phospho-AKT (S473) immunoassay (R&D Systems) as per manufacturer’s protocol. Percentage inhibition of phosphorylation status was calculated by comparing phospho-AKT levels to total AKT levels with each treatment and IC50 values derived using non-linear regression on GraphPad Prism.
(An ELISA detects its analyte on a solid surface through an enzyme-linked reagent.)

Data set [3] deals with pAKT^S473 in A549 tumours. Put plainly: PK/PD study in A549 lung cancer xenograft model. In kind it is in vivo, mouse. Particulars: single oral dose 10, 30 or 100 mg/kg. How it is done:
In order to understand the relationship between ALM301 plasma exposure and in vivo AKT target engagement over time, a PK/PD study was carried out in a A549 lung cancer xenograft model. […] ALM301 plasma concentrations and levels of pAKT^S473 in tumours were measured using western blotting and immunohistochemistry (Fig. 4A, B and Supplementary Fig. S4A–C). […] Tumour sections were collected following one dose of either vehicle or 30 mg/kg of ALM301 at noted time intervals (1 h, 2 h, 4 h, 8 h, 24 h). Tissue sections were subsequently stained with pAKT antibody (brown) staining and scored for pAKT staining using a scale of 1–4 (low to high) (Fig. 4B).
For pharmacokinetic/pharmacodynamic (PK/PD) studies in A549 lung cancer xenografts, 150 male BALB/c nude mice aged 6–8 weeks and weighing approximately 18–22 g were inoculated with 1 × 10^7 A549 tumour cells (ATCC) in 0.1 mL of PBS with Matrigel (1:1) subcutaneously into the right flank. Once the mean tumour size reached 150–250 mm^3, the mice were randomised into treatment groups (18 mice per group) using a randomised block design (first, experimental animals are divided into homogeneous blocks according to their initial tumour volume; secondly, within each block, randomisation of animals to treatment groups was conducted so that each animal had the same probability of being assigned to a given treatment, thereby reducing systematic bias). Group sizes were devised based on previous pilot studies using a minimal numbers approach of n = 3 tumours per time-point (6 time-points per dose level). […] Tumour size was measured twice weekly in two dimensions using a caliper, and the volume expressed in mm^3 using the formula: V = 0.5 (a × b^2), where a and b are the long and short diameters of the tumour, respectively.

The target in the next data set is T1, AKT3 (Homo sapiens, UniProt Q9Y243).
T1 construct: purchased Signal Chem
Put plainly: SelectScreen kinase selectivity profiling, AKT3. Type of data set: biochemical. Particulars: read-out: % inhibition @ 10 µM, AKT3; 10 µM fixed concentration. The method, then:
as §1

Another data set addresses CYP3A4 (Homo sapiens, UniProt P08684). The experiment in a line: CYP3A4 inhibition. Type of data set: in vitro ADME. Particulars: read-out: CYP IC50, 3A4.

A value given as a limit tells only on which side of the number the result lay.

Sequence of p38α (Q16539 whole entry): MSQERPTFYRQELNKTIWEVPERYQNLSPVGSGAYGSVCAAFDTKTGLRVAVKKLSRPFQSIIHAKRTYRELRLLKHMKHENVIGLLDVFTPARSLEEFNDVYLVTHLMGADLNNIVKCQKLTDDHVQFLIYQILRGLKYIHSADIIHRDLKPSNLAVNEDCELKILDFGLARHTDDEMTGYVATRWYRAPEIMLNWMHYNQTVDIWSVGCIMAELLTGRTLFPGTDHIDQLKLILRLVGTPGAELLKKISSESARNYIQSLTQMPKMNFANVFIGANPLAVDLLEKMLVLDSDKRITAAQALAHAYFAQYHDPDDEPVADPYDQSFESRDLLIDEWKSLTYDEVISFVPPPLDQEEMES
T1 sequence (Q9Y243 whole entry): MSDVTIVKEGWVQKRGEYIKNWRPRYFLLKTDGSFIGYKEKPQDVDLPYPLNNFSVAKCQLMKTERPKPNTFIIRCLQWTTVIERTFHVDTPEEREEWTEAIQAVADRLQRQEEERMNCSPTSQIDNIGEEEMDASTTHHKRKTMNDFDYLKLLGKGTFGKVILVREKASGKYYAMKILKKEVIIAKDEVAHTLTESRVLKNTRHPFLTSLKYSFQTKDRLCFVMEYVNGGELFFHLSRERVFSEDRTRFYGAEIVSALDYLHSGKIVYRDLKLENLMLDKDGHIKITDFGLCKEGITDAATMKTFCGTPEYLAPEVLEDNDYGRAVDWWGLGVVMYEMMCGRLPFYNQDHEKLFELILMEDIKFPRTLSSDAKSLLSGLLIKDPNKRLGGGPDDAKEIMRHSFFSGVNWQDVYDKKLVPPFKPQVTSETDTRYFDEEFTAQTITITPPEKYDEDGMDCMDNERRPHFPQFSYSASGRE
Sequence of CYP3A4 (P08684 whole entry): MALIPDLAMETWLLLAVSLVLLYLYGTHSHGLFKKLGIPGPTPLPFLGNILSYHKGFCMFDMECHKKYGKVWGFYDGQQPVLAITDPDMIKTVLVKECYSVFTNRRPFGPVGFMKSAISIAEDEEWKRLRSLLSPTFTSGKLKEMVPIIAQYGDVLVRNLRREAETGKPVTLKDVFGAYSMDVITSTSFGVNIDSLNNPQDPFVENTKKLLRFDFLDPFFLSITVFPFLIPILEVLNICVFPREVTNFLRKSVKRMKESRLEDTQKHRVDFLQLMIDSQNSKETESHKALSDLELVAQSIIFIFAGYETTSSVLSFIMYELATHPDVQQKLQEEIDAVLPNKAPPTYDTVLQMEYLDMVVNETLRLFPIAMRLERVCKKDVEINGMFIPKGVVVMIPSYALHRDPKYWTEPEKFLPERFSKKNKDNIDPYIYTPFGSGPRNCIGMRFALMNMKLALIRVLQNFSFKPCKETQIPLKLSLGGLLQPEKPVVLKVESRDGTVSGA

`CCN1C(=O)COc2nc(-c3ccc([C@]4(N)C[C@@H](O)C4)cc3)c(-c3ccccc3)cc21` [ALM301, 6-(4-((1S,3S)-1-amino-3-hydroxycyclobutyl)phenyl)-1-ethyl-7-phenyl-1H-pyrido[2,3-b][1,4]oxazin-2(3H)-one]: the IC50 with A549 cells is 43 µM; with MCF-7 cells, 0.1 µM; against p38α (10-point titration curve), above 10 µM; in data set [2], 0.16 µM; on CYP3A4, above 25 µM. Also, the “tolerability / body weight” value in the data set with A549 xenografts (100 mg/kg dosing group, recovered after every other day dosing) is “Moderate bodyweight loss”; with A549 xenografts (10 and 30 mg/kg dose groups), “no body weight loss or adverse effects observed”. The figures for the “tumour growth inhibition (TGI)” value with A549 xenografts (p.o. 10 mg/kg q.d. × 28), in the data set on A549 xenografts (p.o. 30 mg/kg q.d. × 28) and with A549 xenografts (p.o. 100 mg/kg q.d × 3 then q.o.d. × 25) were 23%, 31% and 41%, respectively. Also, the microsomal CLint at 1 µM in data set [1] is 3.7 µL/min/mg. Moreover, the inhibition at 10 µM on p38α (read-out: % inhibition @ 10 µM, p38α, 10 µM fixed concentration) worked out at 84%; at AKT3, 72%. In addition, the “pAKT^S473 in tumours” value in data set [3] (all timepoints over 24 h, BALB/c mice bearing A549 xenografts) is on record as “almost total abrogation”. Also, the total plasma concentrations entry in data set [3] (mice bearing A549 xenografts) is “dose-dependent increases”.

For orientation: IC50 means the midpoint of a concentration-inhibition curve. As a reminder, the inhibition is the change of the read-out against control, counted positive when it falls.
